Measurements published in patent publication US7041700B2, “Substituted benzopyran derivatives against arrhythmia” (Nissan Chemical Industries, Ltd., priority 2001, dated 2006).

Columns and labels:
Atrium = experiment: Effects on the effective refractory period, atrium (anesthetized beagles, vagal nerve stimulation, S1-S2 extrastimulus); type: in vivo; conditions: 0.3 mg/kg intravenously, from 5 min after administration, basic cycle length 300 msec, bilateral vagal nerve stimulation, ERP after minus before drug
Method: (§1) Effects on the Effective Refractory Period
(§2) Beagles were anesthetized with pentobarbital sodium and thoracotomy was done along the median line under a respirator and the incision was made on the pericardium to expose the heart. ECG was recorded using bipolar electrodes attached to the surface of the right atrial free wall, right atrial auricle, and right ventricular free wall. The vagal nerves were stimulated using an electrostimulation device with Nichrome wires inserted into the vagal nerves in the neck bilaterally. The conditions for electrostimulation to the vagal nerves were set such that the RR intervals on ECG were prolonged by about 100 msec compared with those before the stimulation was started.
(§3) Atrial and ventricular effective refractory periods were determined by S1-S2 extrastimulus technique at basic cycle length of 300 msec during bilateral vagal nerve stimulation, using programmable electric stimulator. A train of 10 basic stimuli (S1) was followed by a premature extrastimulus (S2) at 2 times diastolic threshold.
(§4) For evaluation of drug effects, the atrial and ventricular effective refractory periods were determined before drug administration, then respective compound was administrated intravenously at the dose of 0.3 mg/kg, and the atrial and ventricular effective refactory periods were determined from 5 min after the administration.
(§5) The results were shown as the prolongation time on the atrial and ventricular effective refractory periods, i.e. [effective refractory period after drug administration]−[effective refactory period before drug administration] (msec).

Ventricle = experiment: Effects on the effective refractory period, ventricle (anesthetized beagles, vagal nerve stimulation, S1-S2 extrastimulus); type: in vivo; conditions: 0.3 mg/kg intravenously, from 5 min after administration, basic cycle length 300 msec, bilateral vagal nerve stimulation, ERP after minus before drug
Method: as §1, §2, §3, §4, §5

Cc1ccc2c(c1)[C@H](NCCc1ccc(Cl)cc1)[C@@H](O)C(C)(C)O2 [compound 2]
prolongation time on the effective refractory period (msec) Atrium (Atrium): 23 ms | prolongation time on the effective refractory period (msec) Ventricle (Ventricle): 4 ms

CC1(C)Oc2ccc(C(N)=O)cc2[C@H](NCCc2ccccc2)[C@H]1O [compound 3]
prolongation time on the effective refractory period (msec) Atrium (Atrium): 21 ms | prolongation time on the effective refractory period (msec) Ventricle (Ventricle): 4 ms

CC1(C)Oc2ccc(C(N)=O)cc2[C@H](NCCc2ccc(F)cc2)[C@H]1O [compound 4]
prolongation time on the effective refractory period (msec) Atrium (Atrium): 23 ms | prolongation time on the effective refractory period (msec) Ventricle (Ventricle): -10 ms

CC1(C)Oc2cc([N+](=O)[O-])ccc2[C@H](NCCc2ccccc2)[C@H]1O [compound 6]
prolongation time on the effective refractory period (msec) Atrium (Atrium): 36 ms | prolongation time on the effective refractory period (msec) Ventricle (Ventricle): 9 ms
